In US20200239530A1, “COMPOUNDS AND METHODS OF MODULATING PROTEIN DEGRADATION” (Vividion Therapeutics, Inc., priority 2017, published 2020):

Columns and labels:
Assay in all cases: Cysteine liganding, probe competition
Type in all cases: binding
[1] = molecular target: T1, UniProt O15151 (Homo sapiens, UniProt O15151); settings: for inhibition at 500 µM: read-out: percent inhibition
T1 construct: Cells were resuspended in cold PBS on ice and sonicated with a probe sonicator to achieve lysis; endogenous in cells
T1 sequence (O15151 1-490): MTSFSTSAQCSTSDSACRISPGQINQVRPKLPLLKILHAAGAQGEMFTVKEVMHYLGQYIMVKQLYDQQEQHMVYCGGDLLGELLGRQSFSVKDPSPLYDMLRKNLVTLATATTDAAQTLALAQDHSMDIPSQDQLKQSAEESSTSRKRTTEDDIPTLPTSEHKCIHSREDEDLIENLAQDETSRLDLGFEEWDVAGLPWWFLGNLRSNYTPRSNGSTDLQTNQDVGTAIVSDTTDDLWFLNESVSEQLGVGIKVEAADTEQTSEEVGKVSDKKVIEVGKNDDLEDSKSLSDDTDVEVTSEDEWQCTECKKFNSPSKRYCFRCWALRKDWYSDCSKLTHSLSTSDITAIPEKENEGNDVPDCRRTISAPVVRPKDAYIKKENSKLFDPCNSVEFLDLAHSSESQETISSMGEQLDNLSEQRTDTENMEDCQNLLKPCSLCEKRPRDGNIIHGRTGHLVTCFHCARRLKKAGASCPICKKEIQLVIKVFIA
Description: (§1) The following 96-well sample prep protocol was used for sample preparation.

[2] = molecular target: T2, UniProt Q9H0A6 (Homo sapiens, UniProt Q9H0A6)
T2 construct: 200 μL of lysate containing 5 mg/ml proteome was treated with 2 μL of 100× compound stock; endogenous in cells
T2 sequence (Q9H0A6 whole entry, change not shown): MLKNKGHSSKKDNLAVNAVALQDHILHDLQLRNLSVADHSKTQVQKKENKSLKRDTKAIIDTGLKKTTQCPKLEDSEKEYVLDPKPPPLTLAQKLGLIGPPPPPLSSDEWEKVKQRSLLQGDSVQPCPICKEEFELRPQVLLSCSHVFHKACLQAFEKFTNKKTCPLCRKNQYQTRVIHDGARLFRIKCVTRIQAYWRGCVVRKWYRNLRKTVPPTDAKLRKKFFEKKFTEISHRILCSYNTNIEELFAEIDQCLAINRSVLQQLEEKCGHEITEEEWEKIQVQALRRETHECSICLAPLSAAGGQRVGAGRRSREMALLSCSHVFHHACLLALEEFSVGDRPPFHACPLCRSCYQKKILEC
Description: as §1

[3] = molecular target: T3, UniProt Q9BSL1 (Homo sapiens, UniProt Q9BSL1)
T3 construct: 200 μL of lysate containing 5 mg/ml proteome was treated with 2 μL of 100× compound stock; endogenous in cells
T3 sequence (Q9BSL1 1-405): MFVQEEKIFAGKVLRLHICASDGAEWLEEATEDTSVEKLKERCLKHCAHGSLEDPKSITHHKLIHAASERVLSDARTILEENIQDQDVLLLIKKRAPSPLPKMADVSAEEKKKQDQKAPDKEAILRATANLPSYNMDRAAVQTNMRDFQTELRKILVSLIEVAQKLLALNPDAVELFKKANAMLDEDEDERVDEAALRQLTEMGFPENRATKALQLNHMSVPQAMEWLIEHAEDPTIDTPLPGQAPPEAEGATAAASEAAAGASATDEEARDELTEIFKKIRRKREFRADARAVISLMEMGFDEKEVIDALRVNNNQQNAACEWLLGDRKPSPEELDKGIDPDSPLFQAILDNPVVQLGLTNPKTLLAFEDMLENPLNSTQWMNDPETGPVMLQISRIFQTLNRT
Description: as §1

[4] = molecular target: T4, UniProt Q9HBE1 (Homo sapiens, UniProt Q9HBE1)
T4 construct: Cells were resuspended in cold PBS on ice and sonicated with a probe sonicator to achieve lysis; endogenous in cells
T4 sequence (Q9HBE1 whole entry, change not shown): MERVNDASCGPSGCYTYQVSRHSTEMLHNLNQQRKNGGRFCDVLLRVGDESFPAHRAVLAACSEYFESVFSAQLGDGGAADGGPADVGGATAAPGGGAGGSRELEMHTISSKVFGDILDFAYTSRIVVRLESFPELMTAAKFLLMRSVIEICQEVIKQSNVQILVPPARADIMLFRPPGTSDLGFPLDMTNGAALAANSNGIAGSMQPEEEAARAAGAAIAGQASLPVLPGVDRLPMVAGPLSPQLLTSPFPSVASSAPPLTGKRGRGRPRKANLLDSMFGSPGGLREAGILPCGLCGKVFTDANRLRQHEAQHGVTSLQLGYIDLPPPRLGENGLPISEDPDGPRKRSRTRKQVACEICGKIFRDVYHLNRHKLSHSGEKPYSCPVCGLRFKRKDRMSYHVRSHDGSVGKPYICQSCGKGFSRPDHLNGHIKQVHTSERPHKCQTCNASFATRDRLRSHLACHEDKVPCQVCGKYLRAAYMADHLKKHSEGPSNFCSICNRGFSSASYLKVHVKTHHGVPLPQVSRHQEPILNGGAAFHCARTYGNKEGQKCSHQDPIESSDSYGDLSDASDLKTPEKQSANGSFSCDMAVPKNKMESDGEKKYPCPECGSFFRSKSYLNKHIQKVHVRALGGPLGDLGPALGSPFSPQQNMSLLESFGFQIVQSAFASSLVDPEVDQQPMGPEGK
Description: as §1

[5] = molecular target: T5, UniProt Q9HCI7 (Homo sapiens, UniProt Q9HCI7); settings: for percent inhibition: 100 uM
T5 construct: Cells were resuspended in cold PBS on ice and sonicated with a probe sonicator to achieve lysis; endogenous in cells
T5 sequence (Q9HCI7 1-577): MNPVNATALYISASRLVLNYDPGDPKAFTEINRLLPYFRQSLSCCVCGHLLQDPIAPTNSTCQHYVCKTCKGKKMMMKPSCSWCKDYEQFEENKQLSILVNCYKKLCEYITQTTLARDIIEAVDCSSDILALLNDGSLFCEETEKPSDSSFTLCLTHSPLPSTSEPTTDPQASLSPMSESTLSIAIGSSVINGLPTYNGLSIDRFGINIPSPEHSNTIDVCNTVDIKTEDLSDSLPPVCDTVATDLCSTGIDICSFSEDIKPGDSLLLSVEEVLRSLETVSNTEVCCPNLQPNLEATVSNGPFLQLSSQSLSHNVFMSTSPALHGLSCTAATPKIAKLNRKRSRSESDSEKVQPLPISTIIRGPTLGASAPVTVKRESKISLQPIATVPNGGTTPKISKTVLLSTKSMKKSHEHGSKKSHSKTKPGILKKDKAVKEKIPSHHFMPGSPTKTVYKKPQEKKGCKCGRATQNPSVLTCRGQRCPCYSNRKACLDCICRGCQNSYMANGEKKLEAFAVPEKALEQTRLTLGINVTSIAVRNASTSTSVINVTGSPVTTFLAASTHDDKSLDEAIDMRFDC
Description: as §1

[6] = 500 uM, read-out: percent_inhibition

SMILES	inhibition at 500 µM [1] [%]	inhibition at 100 µM ([2]; 100 uM, read-out: percent_inhibition) [%]	inhibition at 500 µM [2, 6] [%]	percent inhibition ([1]; 500 uM) [%]	inhibition at 100 µM ([3]; 100 uM, read-out: KB05_100 uM_percent_inhibition) [%]	KB05_500 uM_percent_inhibition ([3]; 500 uM) [%]	inhibition at 500 µM ([3]; 500 uM, read-out: KB05_500 uM_percent_inhibition) [%]	percent_inhibition ([2]; 500 uM) [%]	inhibition at 100 µM ([4]; read-out: KB05_100 uM_percent_inhibition) [%]	percent inhibition [5] [%]	inhibition at 100 µM ([5]; read-out: percent inhibition) [%]	KB03_100 uM_percent_inhibition ([3]; 100 uM) [%]	KB03_100 uM_percent_inhibition ([4]; 100 uM) [%]
COc1ccc2c(c1)CCCN2C(=O)CCl [KB02]	29	44	42										
C=CC(=O)N(c1ccccc1)c1ccc(Br)cc1 [KB05]	55		16	41	36	57	48	10	45	11	15		
O=C(CCl)Nc1cc(C(F)(F)F)cc(C(F)(F)F)c1 [KBO3]										49		36	72
